Patent publication US7560252B2, “Borrelidin-producing polyketide synthase and its use” (priority 2002, dated 2009)
Converted amounts (≈) assume the structure as drawn.

Key:
[1] = system: endothelial cell proliferation and endothelial capillary formation; conditions: with respect to borrelidin; cited from earlier work
S. albus J1074/pEM4A = experiment: soaked disk bioassay, control strain; assay type: cell-based, Streptomyces albus J1074; conditions: disks with borrelidin at 100 & 200 μg/ml, Bennett's agar, overnight at 30° C.
Excerpt: The self-resistance of S. parvulus strains to borrelidin is most probably due to the product of borO, which encodes a threonyl tRNA synthetase homologue. Threonyl-tRNA synthetase is the molecular target of borrelidin in sensitive strains (Paetz & Ness, 1973). It is predicted that BorO is resistant to the action of borrelidin, and acts to produce threonyl-tRNAs in cells that make borrelidin, effectively complementing the normal threonyl-tRNA which are inhibited. To verify this hypothesis borO was amplified by PCR and cloned in to the expression vector pEM4A, which puts borO under the control of the strong constitutive promoter ermE* (example 26). The resulting vector pborOR was then transformed into the borrelidin-sensitive strain Streptomyces albus J1074 (Chater & Wilde, 1980).
Resistance to borrelidin was assayed on Bennett's agar containing apramycin at 25 μg/ml. Spores of S. albus J1074/pborOR and the control S. albus J1074/pEM4A were spread onto plates and then disks containing borrelidin at 100 & 200 μg/ml were laid upon the lawn of spores and incubated overnight at 30° C.

capillary tube formation = conditions: rat aorta matrix culture model; cited from earlier work
[2] = system: human umbilical vein endothelial cells (HUVEC); conditions: cited from earlier work
protein synthesis = conditions: cited from earlier work
WiDr cells = conditions: 1.8 mg/kg by intraperitoneal injection; higher degree than TNP-470; cited from earlier work
B16-BL6 melanoma cells = conditions: same dosage (1.8 mg/kg); cited from earlier work
[3] = system: WiDr cell lines of human colon cancer; conditions: JP 9-227,549 and JP 8-173,167; cited from earlier work
[4] = system: PC-3 cell lines of human prostate cancer; conditions: JP 9-227,549 and JP 8-173,167; cited from earlier work
[5] = system: Lewis lung adenocarcinoma; conditions: cited from earlier work
[6] = system: haploid and diploid cells; conditions: at concentrations that do not affect gross protein biosynthesis; cited from earlier work
caspase-3 = conditions: cited from earlier work
caspase-8 = conditions: cited from earlier work
[7] = system: mouse colon adenocarcinoma cells; conditions: subtoxic dose; cited from earlier work

Question: For `CC1CC(C)CC(C)C(O)C(C#N)=CC=CCC(C2CCCC2C(=O)OCCc2ccccn2)OC(=O)CC(O)C(C)C1` (stereo not drawn) [borrelidin-(2-pyridyl)-ethyl ester], which “selectivity index, capillary formation inhibitory activity versus cell proliferation” value [1] is on record?
Answer: 7.5 fold

Question: For borrelidin-amide, which “selectivity index, capillary formation inhibitory activity versus cell proliferation” value [1] is on record?
Answer: 37 fold

Question: Which results are given for `C[C@@H]1C[C@H](C)C[C@H](C)[C@@H](O)CC(=O)O[C@H]([C@@H]2CCC[C@H]2C(=O)O)C/C=C/C=C(/C#N)[C@H](O)[C@@H](C)C1` [Borrelidin]?
Answer: haloes of growth inhibition (S. albus J1074/pEM4A): Haloes indicating inhibition of growth were observed; IC50 (capillary tube formation): 0.8 nM; IC50 capillary tube formation (capillary tube formation): 0.4 ng/mL (≈ 0.817 nM); IC50 anti-proliferative activity towards HUVEC ([2]; cell growth assay): 6 ng/mL (≈ 12.3 nM); anti-proliferative activity weaker than the anti-angiogenesis activity ([2]; measured in the same medium): 15 fold; IC50 for anti-angiogenesis activity lower than for inhibition of protein synthesis (protein synthesis; 0.4 ng/ml versus 20 ng/ml): 50 fold; IC50 inhibition of protein synthesis (protein synthesis; cultured rat cells): 20 ng/mL; increment of vascular volume induced by WiDr cells (WiDr cells): significantly reduce the increment of vascular volume; inhibition of the formation of spontaneous lung metastases (B16-BL6 melanoma cells): effective; effectiveness against WiDr cell lines [3]: effective; effectiveness against PC-3 cell lines [4]: effective; propagation of metastatic nodules ([5]; after removal of the primary tumour): weakly inhibited; cell cycle arrest in late G1 phase [6]: arrests both haploid and diploid cells in late G1 phase; caspase-3 activation (caspase-3): activate; caspase-8 activation (caspase-8): activate

Question: Which “selectivity index, capillary formation inhibitory activity versus cell proliferation” value [1] does the source give for `C[C@@H]1C[C@H](C)C[C@H](C)[C@@H](O)CC(=O)O[C@H]([C@@H]2CCC[C@H]2C(=O)OCCN2CCOCC2)C/C=C/C=C(/C#N)[C@H](O)[C@@H](C)C1` [borrelidin-morpholinoethyl ester] here?
Answer: 60 fold

Question: For `CC1CC(C)CC(C)C(O)CC(=O)OC(C2CCCC2C(=O)NCc2cccnc2)C(C#N)=CC=CCC(O)C(C)C1` (stereo not drawn) [borrelidin-(3-picolylamide)], which increase of micrometastases ([5]; rats, intraperitoneal and per os administration at subtoxic doses) is on record?
Answer: inhibit very considerably

Question: And the “metastasis-forming ability of cells transplanted into mouse spleen” value [7]?
Answer: considerably decreased

Question: Which “selectivity index, capillary formation inhibitory activity versus cell proliferation” value [1] does the source give for `C[C@@H]1C[C@H](C)C[C@H](C)[C@@H](O)CC(=O)O[C@H]([C@@H]2CCC[C@H]2C(=O)NCCN2CCOCC2)C/C=C/C=C(/C#N)[C@H](O)[C@@H](C)C1` [borrelidin-morpholinoethyl amide] here?
Answer: 6 fold
